Measurements from ChEMBL document CHEMBL1201862, “PubChem BioAssay data set” (2004).
The source made the active and inactive calls.

Tests used:
BJ [1] = test: BJ-TERT fibroblast viability loss – cell-based, RAS-independent, luminescence, dose response (AID 1933); format: functional; conditions: Homo sapiens
BJ [2] = test: cells; format: functional, cell-based; conditions: Homo sapiens
BJ [3] = test: BJ-TERT-LT-ST fibroblast viability loss – cell-based, RAS-independent, luminescence, dose response (AID 1935); format: functional; conditions: Homo sapiens;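 further: BJ fibroblasts immortalized with TERT plus LT and ST oncogenes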
[4] = DRD fibroblast viability loss – cell-based, non-viral oncogenic, luminescence, dose response (AID 1934); format: functional; conditions: Homo sapiens
[5] = target: T1, Mannose-6-phosphate isomerase (Homo sapiens, UniProt P34949); test: MPI inhibition at elevated mannose 6-phosphate – biochemical, fluorescence intensity, high mannose 6-phosphate, primary screen (AID 1220)
T1 sequence (P34949 whole entry): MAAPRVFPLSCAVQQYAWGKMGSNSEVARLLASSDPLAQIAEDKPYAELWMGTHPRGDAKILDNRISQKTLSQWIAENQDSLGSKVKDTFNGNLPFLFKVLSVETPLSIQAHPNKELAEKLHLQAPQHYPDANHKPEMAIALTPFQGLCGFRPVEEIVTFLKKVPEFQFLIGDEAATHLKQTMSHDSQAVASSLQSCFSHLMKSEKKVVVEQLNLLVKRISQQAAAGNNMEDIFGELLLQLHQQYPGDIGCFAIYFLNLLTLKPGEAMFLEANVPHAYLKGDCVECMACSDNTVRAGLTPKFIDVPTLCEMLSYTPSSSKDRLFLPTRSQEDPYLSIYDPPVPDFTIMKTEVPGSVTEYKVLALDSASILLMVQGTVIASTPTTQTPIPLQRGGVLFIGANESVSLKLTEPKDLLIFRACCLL

[6] = target: T1, Mannose-6-phosphate isomerase; test: phosphomannose isomerase inhibition – biochemical, fluorescence intensity, confirmation (AID 1535)
[7] = target: DNA dC->dU-editing enzyme APOBEC-3A (Homo sapiens, UniProt P31941); test: A3A deaminase inhibition for selectivity – biochemical, dose response (AID 504722); format: functional
Phosphomannomutase 2 = Phosphomannomutase 2 (Homo sapiens, UniProt O15305); test: Counter screen SAR assay for PMM2 inhibitors via a fluorescence intensity assay. [Related pubchem assays (depositor defined):AID1545, AID1574]
[8] = target: DNA dC->dU-editing enzyme APOBEC-3G (Homo sapiens, UniProt Q9HC16); test: Dose Response confirmation of small molecule APOBEC3G DNA Deaminase Inhibitors via a fluorescence-based single-stranded DNA deaminase assay. [Related pubchem assays (depositor defined):AID493012, AID493028]; format: functional
[9] = target: Lysine-specific demethylase 4C (Homo sapiens, UniProt Q9H3R0); test: inhibition of JMJD2C H3K9me3 demethylation – biochemical, DELFIA europium, cherry-picked samples, dose response (AID 488835); format: functional
SUMO E1/E2 = SUMO E1/E2 (Homo sapiens, UniProt P63279+Q9UBE0+Q9UBT2); test: SAR analysis of SUMOylation using HTRF in an in-Vitro dose response assay. [Related pubchem assays (depositor defined):AID2006, AID2011, AID2018, AID2069, AID2658]; format: functional
SUMO E1/E2, sequence (Q9UBE0 whole entry): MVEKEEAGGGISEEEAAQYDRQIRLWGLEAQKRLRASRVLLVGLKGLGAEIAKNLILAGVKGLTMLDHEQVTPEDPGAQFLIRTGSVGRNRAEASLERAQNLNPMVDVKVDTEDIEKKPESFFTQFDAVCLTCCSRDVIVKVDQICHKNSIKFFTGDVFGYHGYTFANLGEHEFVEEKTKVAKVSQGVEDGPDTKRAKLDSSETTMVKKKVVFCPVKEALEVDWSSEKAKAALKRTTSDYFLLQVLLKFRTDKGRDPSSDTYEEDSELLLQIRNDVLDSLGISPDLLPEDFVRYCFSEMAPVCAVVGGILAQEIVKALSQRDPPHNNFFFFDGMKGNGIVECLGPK
SUMO E1/E2, sequence (Q9UBT2 whole entry): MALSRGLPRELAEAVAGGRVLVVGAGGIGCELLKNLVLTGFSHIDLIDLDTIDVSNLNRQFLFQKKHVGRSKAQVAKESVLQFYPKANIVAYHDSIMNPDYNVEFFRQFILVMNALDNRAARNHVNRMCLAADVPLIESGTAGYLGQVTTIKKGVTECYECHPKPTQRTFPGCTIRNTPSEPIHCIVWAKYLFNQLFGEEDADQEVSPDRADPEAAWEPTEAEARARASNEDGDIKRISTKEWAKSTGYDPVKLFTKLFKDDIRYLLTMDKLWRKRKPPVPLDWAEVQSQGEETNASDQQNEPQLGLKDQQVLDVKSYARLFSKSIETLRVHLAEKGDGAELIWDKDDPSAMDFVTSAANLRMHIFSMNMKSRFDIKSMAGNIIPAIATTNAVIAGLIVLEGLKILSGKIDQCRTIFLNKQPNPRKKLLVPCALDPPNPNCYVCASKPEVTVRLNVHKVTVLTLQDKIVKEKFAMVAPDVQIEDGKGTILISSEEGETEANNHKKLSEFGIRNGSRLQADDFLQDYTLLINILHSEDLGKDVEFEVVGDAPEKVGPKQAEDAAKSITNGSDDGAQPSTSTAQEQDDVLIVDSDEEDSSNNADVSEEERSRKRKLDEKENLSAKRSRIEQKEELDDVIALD
SUMO E1/E2, sequence (P63279 whole entry): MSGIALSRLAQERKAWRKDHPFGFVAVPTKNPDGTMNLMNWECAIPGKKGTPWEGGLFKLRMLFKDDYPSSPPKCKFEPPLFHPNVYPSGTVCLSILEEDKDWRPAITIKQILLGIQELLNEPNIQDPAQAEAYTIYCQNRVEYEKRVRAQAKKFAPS

Lysine-specific demethylase 4C, sequence (Q9H3R0 whole entry): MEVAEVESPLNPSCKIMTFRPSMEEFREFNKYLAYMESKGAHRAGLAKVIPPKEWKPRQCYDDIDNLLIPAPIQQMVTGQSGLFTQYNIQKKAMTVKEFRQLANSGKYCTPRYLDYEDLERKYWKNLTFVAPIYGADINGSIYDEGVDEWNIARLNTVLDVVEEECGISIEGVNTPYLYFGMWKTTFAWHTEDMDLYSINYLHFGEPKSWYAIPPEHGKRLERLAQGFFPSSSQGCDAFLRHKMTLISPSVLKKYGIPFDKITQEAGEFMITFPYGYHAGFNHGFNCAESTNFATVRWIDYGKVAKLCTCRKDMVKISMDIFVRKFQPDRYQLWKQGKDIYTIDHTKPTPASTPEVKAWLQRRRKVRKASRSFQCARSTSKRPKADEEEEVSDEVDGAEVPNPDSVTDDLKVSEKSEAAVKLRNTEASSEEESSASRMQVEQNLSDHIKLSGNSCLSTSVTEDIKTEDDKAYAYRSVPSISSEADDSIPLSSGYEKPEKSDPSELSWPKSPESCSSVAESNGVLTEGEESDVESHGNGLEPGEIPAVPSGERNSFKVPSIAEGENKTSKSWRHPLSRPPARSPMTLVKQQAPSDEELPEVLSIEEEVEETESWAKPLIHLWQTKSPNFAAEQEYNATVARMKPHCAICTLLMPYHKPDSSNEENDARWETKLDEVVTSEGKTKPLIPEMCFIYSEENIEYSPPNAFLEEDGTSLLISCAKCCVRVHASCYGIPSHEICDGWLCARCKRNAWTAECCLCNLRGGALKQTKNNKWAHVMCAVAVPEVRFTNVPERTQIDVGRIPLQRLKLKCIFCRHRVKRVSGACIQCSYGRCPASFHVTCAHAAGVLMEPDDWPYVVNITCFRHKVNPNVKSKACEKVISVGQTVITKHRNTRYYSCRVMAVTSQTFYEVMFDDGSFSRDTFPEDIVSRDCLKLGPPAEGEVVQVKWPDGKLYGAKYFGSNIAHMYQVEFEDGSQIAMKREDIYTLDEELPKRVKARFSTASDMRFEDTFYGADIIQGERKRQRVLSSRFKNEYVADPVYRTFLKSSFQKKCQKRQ
DNA dC->dU-editing enzyme APOBEC-3G, sequence (Q9HC16 whole entry): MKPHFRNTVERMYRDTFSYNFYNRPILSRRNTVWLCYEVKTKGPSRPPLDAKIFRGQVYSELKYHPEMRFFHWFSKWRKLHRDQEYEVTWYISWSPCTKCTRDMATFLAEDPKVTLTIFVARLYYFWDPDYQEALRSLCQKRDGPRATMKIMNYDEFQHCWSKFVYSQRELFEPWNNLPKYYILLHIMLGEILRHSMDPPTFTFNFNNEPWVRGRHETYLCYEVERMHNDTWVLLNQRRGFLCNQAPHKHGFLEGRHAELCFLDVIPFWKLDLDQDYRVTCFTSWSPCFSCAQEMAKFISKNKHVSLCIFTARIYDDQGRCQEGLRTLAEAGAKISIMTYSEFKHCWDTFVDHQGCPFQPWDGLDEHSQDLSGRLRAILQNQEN
Phosphomannomutase 2, sequence (O15305 whole entry): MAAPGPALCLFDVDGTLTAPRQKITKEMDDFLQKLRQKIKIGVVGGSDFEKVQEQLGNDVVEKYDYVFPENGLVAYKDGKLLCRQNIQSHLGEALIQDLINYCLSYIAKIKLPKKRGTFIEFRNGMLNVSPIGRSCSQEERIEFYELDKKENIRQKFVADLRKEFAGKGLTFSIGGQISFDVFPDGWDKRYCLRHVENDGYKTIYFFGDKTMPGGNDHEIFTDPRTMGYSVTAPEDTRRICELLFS
DNA dC->dU-editing enzyme APOBEC-3A, sequence (P31941 whole entry): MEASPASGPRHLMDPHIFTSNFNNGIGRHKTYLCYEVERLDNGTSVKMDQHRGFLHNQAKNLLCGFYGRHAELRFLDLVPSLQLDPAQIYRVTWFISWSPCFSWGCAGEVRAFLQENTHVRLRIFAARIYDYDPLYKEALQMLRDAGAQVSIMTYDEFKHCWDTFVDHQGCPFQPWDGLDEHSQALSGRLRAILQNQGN

N#Cc1ccc(/N=c2\ssnc2Cl)cc1
EC50 (BJ [1]): 6.16 µM (inconclusive) | EC50 (BJ [2]): > 150 µM (inconclusive) | EC50 (BJ [3]): > 150 µM (inconclusive) | EC50 [4]: 14.3 µM (active) | IC50 [5]: 6.34 µM (not active) | IC50 [6]: 4.14 µM (active) | IC50 [7]: > 100 µM (inactive) | IC50 (Phosphomannomutase 2): > 100 µM (inactive) | IC50 [8]: 7.33 µM (active) | AC50 [9]: 5.67 µM (active)

S=c1[nH]nc(-c2cc(-c3ccccc3)[nH]n2)n1N=Cc1cccc(Cl)c1
IC50 (SUMO E1/E2): 12.5 µM (active)
